Source: patent US20070179085A1, “MODULATION OF RHAMM-CAVEOLIN/LIPID RAFT INTERACTIONS TO AFFECT DEVELOPMENT, RESPONSES TO TISSUE INJURY, ANGIOGENESIS, TUMORIGENESIS, METASTASIS AND GROWTH FACTOR/CYTOKINE RESPONSES” (priority 2005, published 2007)

Tests used:
alveolar macrophages = assay: Timelapse cinemicrography of macrophage motility; type: cell-based, rat; conditions: macrophages from bleomycin treated animals, 4 days
Description: Freshly isolated cells from bronchoalveolar lavage of saline or bleomycin-treated animals were monitored for their motility using a Nikon TE-300 inverted microscope (Nikon Corp., Tokyo, Japan) to which a video camera (Hamamatsu CCD, Inc., Hamamatsu City, Japan) was attached. Cell locomotion of at least 20 cells per animal was determined using Metamorph (Universal Imaging Corp., Downingtown, Pa.). Cells were plated and maintained at 37° C. and followed for 2 hours with mean velocities calculated every 10 minutes. The effect of anti-RHAMM antibody was examined by adding 5 μg/ml of antibody per plate per treatment 15 minutes before measurement of motility. Non-immune IgG was used as a control. Each experiment was repeated at least three times.

male Sprague-Dawley rats = assay: Intratracheal bleomycin lung injury: macrophage accumulation (ED1) and lung architecture; type: in vivo, rat
Source text: The Institutional Animal Care and Utilization Committees at both The Childrenls Hospital of Philadelphia and The University of Pennsylvania School of Medicine approved all animal care procedures. Six-week old (200-250 grams) male Sprague-Dawley rats (Charles River Breeding Laboratories, N. Wilmington, Mass.) were housed in the Animal Care Facility of The Children's Hospital of Philadelphia under standard conditions with free access to food and water. Animals were anesthetized with ketamine:xylazine:atropine (16:8:0.01 mg/kg), and the trachea was visualized through a vertical incision in the neck. Using an insulin syringe, 250 μl of either LPS-free saline or 8 units/kg bleomycin sulfate (Bristol Myers Squibb, Princeton, N.J.) in 250 μl of saline was injected into the trachea. The incision was closed with surgical clips, and animals were immediately injected intraperitoneally with either 0.5 mg of anti-RHAMM antibody (R36) or non-immune IgG. Antibody treatment was continued with daily injections of 0.5 mg of either R36 or IgG for either three or six days. At least three animals were examined for each condition, including one set that remained unmanipulated throughout.
Animals were sacrificed on days 4 or 7 after injury. Bronchoalveolar lavage (BAL) was obtained (36 ml/kg, total lung capacity) and immediately centrifuged at 500 g for 10 minutes to remove all cells and cellular debris. Approximately 80-90% of lavage was routinely recovered. The cellular pellet and the supernatant were separated and frozen at −70° C. until further analysis. […]
Macrophage accumulation was quantified by immunofluorescent staining with the rat macrophage specific marker ED1 (Serotec, Raleigh, N.C.). Endogenous fluorescence was blocked with separate exposure to sodium borohydrate (1 g/10 ml PBS, 3 minutes×2) and 1 M glycine in PBS for 30 minutes. […] Three blinded, independent observers counted ED 1 positive cells per high power field to quantify macrophage accumulation in at least three lung sections from each animal. […]

Which “increase in motility of alveolar macrophages” value (alveolar macrophages) does the source give for bleomycin sulfate here?
Its value is 5 fold.

What about the “increase in macrophage number” value (male Sprague-Dawley rats; IT bleomycin, ED1 positive cells per hpf) of the same substance?
The value was 3 fold.

What about the “macrophage number (ED1 positive cells)” value (male Sprague-Dawley rats; lung sections after IT bleomycin 8 units/kg, R36 0.5 mg ip daily) of the same substance?
The value was 28.4±4.7 cells per hpf.

What about the “lung architecture at seven days” value (male Sprague-Dawley rats; tissue sections, bleomycin-injured rats) of the same substance?
The value was “influx of inflammatory cells with thickening of alveolar septae and early fibrosis”.
